Assay results published in patent US11013812B2, “Ice-based lipid nanoparticle formulation for delivery of mRNA” (Translate Bio, Inc., priority 2016, dated 2021).

Test: Percent mRNA encapsulation of lipid nanoparticle formulations (fluorescence-based detection of mRNA)
Assay type: physicochemical
Settings: LNP of cationic lipid:DOPE:DMG-PEG 2K (molar ratio 60:35:5); 5 mg mRNA LNP preparations
Excerpt: In some embodiments, one particular application of the novel lipid composition comprising a sterol-based cationic lipid, a helper lipid, and a PEG or PEG-modified lipid is pulmonary delivery of mRNA, such as CFTR mRNA.
In this process, the lipids dissolved in ethanol and the mRNA dissolved in citrate buffer were mixed using a pump system. […] The resultant formulation mixture was in citrate buffer containing 20% ethanol. The formulation was subjected to a buffer exchange and the resultant formulation was adjusted to the desired mRNA concentration and stored frozen until further use. Final concentration: 0.5 mg/mL CFTR mRNA (encapsulated). % mRNA Encapsulation: 90%. Size: 60 nm. PDI: 0.14.

SMILES	% mRNA encapsulation
CCCCCCCC/C=C\CCCCCCCCOCC(CN(C)C)OCCCCCCCC/C=C\CCCCCCCC (centres unmarked) [DODMA, 1,2-Dioleyloxy-3-dimethylaminopropane]	51%
CCCCCCCC/C=C\CCCCCCCC(=O)OCC(CN(C)C)OC(=O)CCCCCCC/C=C\CCCCCCCC (centres unmarked) [DODAP, 1,2-dioleoyl-3-dimethylammonium-propane]	49%
CC(C)CCCC(C)C1CCC2C3CC=C4CC(OC(=O)CCc5cnc[nH]5)CCC4(C)C3CCC12C [ICE, (3S, 10R, 13R, 17R)-10, 13-dimethyl-17-((R)-6-methylheptan-2-yl)-2,3,4,7,8,9, 10, 11, 12, 13, 14, 15, 16, 17-tetradecahydro-1H-cyclopenta[a]phenanthren-3-yl 3-(1H-imidazol-4-yl)propanoate]	90%

Second part, the compound after the results:

% mRNA encapsulation	SMILES
39%	CCCCCCCCCCC(O)CN(CCN1CCN(CCN(CC(O)CCCCCCCCCC)CC(O)CCCCCCCCCC)CC1)CCN(CC(O)CCCCCCCCCC)CC(O)CCCCCCCCCC (centres unmarked) [C12-200]
59%	CCCCCCCCCCC(O)CN(CCCC(C)C1OC(=O)C(C(C)CCCN(CC(O)CCCCCCCCCC)CC(O)CCCCCCCCCC)OC1=O)CC(O)CCCCCCCCC (centres unmarked) [Target 24, 3-(5-(bis(2-hydroxydodecyl)amino)pentan-2-yl)-6-(5-((2-hydroxydodecyl)(2-hydroxyundecyl)amino)pentan-2-yl)-1,4-dioxane-2,5-dione]
